{"source": "patent US20250231185A1", "about": "“Coronavirus T Cell Epitopes, Megapools and Uses Thereof” (La Jolla Institute for Immunology, priority 2021, published 2025)", "test_system": "CD4+ T cells", "experiment": "Meta-analysis of published SARS-CoV-2 CD4 T cell epitope data curated in the IEDB (25 studies)", "assay_type": "cell-based, human", "key": {"[1]": {"conditions": "CD4R (D) Megapool, non-spike antigens, dominant = recognized in 3 or more donors/studies"}}, "data": [{"substance": "2322 (KKPRQKRTATKAYNV) [compound 2322]", "values": [{"measurement": "Dominant", "setting": "[1]", "value": "Yes (more dominant epitopes are defined by being recognized by 3 or more donors/different studies)"}]}, {"substance": "2297 (RGHLRIAGHHLGRCD) [compound 2297]", "values": [{"measurement": "Dominant", "setting": "[1]", "value": "Yes (more dominant epitopes are defined by being recognized by 3 or more donors/different studies)"}]}, {"substance": "2291 (CLVGLMWLSYFIASF) [compound 2291]", "values": [{"measurement": "Dominant", "setting": "[1]", "value": "Yes (more dominant epitopes are defined by being recognized by 3 or more donors/different studies)"}]}, {"substance": "2656 (WPQIAQFAPSASAFF) [compound 2656]", "values": [{"measurement": "Dominant", "setting": "CD4RE megapool peptides (non-spike SARS-CoV-2 CD4 epitopes), dominant = recognized by 3 or more donors/different studies", "value": "Yes (more dominant epitopes are defined by being recognized by 3 or more donors/different studies)"}]}, {"substance": "2288 (QFAYANRNRFLYIIK) [compound 2288]", "values": [{"measurement": "Dominant", "setting": "[1]", "value": "Yes (more dominant epitopes are defined by being recognized by 3 or more donors/different studies)"}]}, {"substance": "2332 (FKDQVILLNKHIDAY) [compound 2332]", "values": [{"measurement": "Dominant", "setting": "[1]", "value": "Yes (more dominant epitopes are defined by being recognized by 3 or more donors/different studies)"}]}]}
